Here are results for 1 compound from US20100267796A1, “THERAPEUTIC AGENT FOR IRRITABLE BOWEL SYNDROME” (KYOWA HAKKO KOGYO CO., LTD., priority 2006, published 2010).

Assay [1] has as its system loperamide-induced constipation. In words: Activity on loperamide-induced constipation. In kind it is in vivo, male SD rats. The note with it: doses of 0.01, 0.1 and 1 mg/kg p.o. 1 hour before loperamide 5 mg/kg; rats, n=15; vs. control group. The protocol:
The therapeutic effect of the compounds of the present application on constipation was evaluated by the method described below. Compound 1-1 was used as a test compound.
To Compound 1-1, 0.5 w/v % methyl cellulose 400 (MC, manufactured by Wako Pure Chemical Industries, Ltd.) was added, followed by lightly mixing with a mixer (TTM-1, Shibata Scientific Technology Ltd.). Then, the resultant mixture was subjected to ultrasonic treatment (1 minute) with an ultrasonic cleaner (Sine Sonic UA100, Hitachi Kokusai Denki Engineering Co., Ltd.), and suspended by re-mixing with the mixer to prepare a suspension at a concentration of 0.2 mg/mL. […]
A day before the test, the rat tails were numbered for identification and the body weights were measured. […] The collected stools were dried (100° C., 6 hours) with a dryer (SH42, Yamato Scientific Co., Ltd.), and the weight was measured with an electronic balance (AB54, Mettler-Toledo AG). […]
With respect to the fecal amount, a dry weight was used, and an amount of stools for 0 to 8 hours was used as a measurement parameter. The fecal pellets were collected in a tare (aluminum foil) whose weight was previously measured, and the weight was calculated by subtracting the weight of the tare from the weight including the tare weight. […]

The test system of assay [2] is adenosine uptake in HEK293 cells. The assay can be described thus: Adenosine uptake inhibitory activity in HEK293 cells ([3H]adenosine uptake). The conditions noted are these: Homo sapiens, 1 min, [3H]adenosine uptake relative to 100% of control, HEK293 cells. Type of assay: cell-based. The protocol: A test was conducted according to the method of Leung et al. [Biochemical Pharmacology, Vol. 70, pp. 355-362 (2005)]. HEK293 cells (ATCC, Registration No. CRL-1537) were subcultured in a Dulbecco's modified Eagle's medium (manufactured by Invitrogen Corporation) containing 10% of fatal calf serum in a CO2 incubator using a poly-L-lysine-coated 10-cm dish (manufactured by Asahi Techno Glass Corporation). The cultured cells were seeded in a poly-L-lysine-coated 24-well plate (manufactured by Asahi Techno Glass Corporation) and cultured until the cells become confluent. […] After incubation at room temperature for 15 minutes, 0.2 mL of a Na^+-free buffer containing 100 nmol/L of [^3H] adenosine (manufactured by GE Health Care Bioscience Corporation) and each compound at each of 50 nmol/L and 500 nmol/L was added to each well. After 1 minute, the reaction solution was removed with an aspirator, and the wells were washed twice with 0.5 mL of ice-cooled PBS (phosphate-buffered saline). Then, 0.5 mL of PBS containing 5% Triton X-100 was added to each well, and the cells were scraped with a scraper. The solution in each well was homogenized by passing through a 20 G injection needle ten times and transferred to a scintillation vial containing 4 mL of clear sol (manufactured by Nacalai Tesque Inc.). Further, the wells were washed with 0.5 mL of PBS containing 5% Triton X-100, and the washing solution was added to the same vial. After sufficient agitation, radioactivity was measured using a liquid scintillation counter (Aloka Co., Ltd., LSC-3500). A relative value to 100% of an uptake of a control was indicated by percentage.

`C[C@](O)(C(=O)Nc1cccc2c1C(=O)c1sccc1CS2(=O)=O)C(F)(F)F` [Compound 1-1]: in assay [1], the “fecal amount (dry weight) 0 to 8 hours after the administration of loperamide” value is “significantly inhibits a decrease in fecal amount”. In assay [2] (50 nmol/L compound, n=2), this compound came in with an activity at 0.05 µM of 68%. This compound displayed an activity at 0.5 µM in assay [2] (500 nmol/L compound) of 29%.
